Data from PMC6099547, “Expression, Purification, and Characterization of a Novel Hybrid Peptide with Potent Antibacterial Activity” (Molecules : A Journal of Synthetic Chemistry and Natural …, 2018).
Marks after values point to notes of the source that are not given here. Where a SMILES comes first, the peptide text is derived from it.

Legend:
pepsin = experiment: Protease susceptibility, residual activity by inhibition zone assay; type: in vitro ADME; details: pepsin 10 μg/mL in PBS, agar diffusion inhibition zone; for Functional activity maintained under pepsin: peptide 1 μM in PBS, control without enzyme, S. aureus ATCC25923, three replicates
Description: (§1) CVCC1599 as indicator strains. […] Each assay was performed in triplicate.

proteinase K = proteinase K (Parengyodontium album, UniProt P06873); experiment: as above; type: in vitro ADME; details: proteinase K 10 μg/mL in PBS, peptide 1 μM in PBS; control without enzyme; agar diffusion inhibition zone, S. aureus ATCC25923; three replicates
Chain of proteinase K (P06873 106-384): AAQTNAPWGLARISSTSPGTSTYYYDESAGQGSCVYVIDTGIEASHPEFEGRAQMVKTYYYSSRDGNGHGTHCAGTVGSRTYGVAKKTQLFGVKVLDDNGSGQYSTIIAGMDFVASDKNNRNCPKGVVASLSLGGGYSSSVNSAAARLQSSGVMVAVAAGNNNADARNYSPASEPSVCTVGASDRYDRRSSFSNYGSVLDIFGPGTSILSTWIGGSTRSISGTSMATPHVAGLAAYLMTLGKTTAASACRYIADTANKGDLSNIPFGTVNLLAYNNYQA
Description: as §1

trypsin = experiment: as above; details: trypsin 10 μg/mL in PBS, peptide 1 μM in PBS; control without enzyme; agar diffusion inhibition zone, S. aureus ATCC25923; three replicates
Description: Antibacterial activity of recombinant C–L was assayed by the agar diffusion method with S. aureus ATCC25923 as indicator strain. […] The same volume of PBS was used as negative control. The inhibition zone was measured after incubation overnight at 37 °C. […] CVCC1599 as indicator strains. The indicator strains were cultured at 37 °C to logarithmic stage and diluted to the concentration of 1 × 10^6 cfu/mL with Mueller–Hinton (MH) broth medium, and 180 µL culture was dispensed into per well of 96-well microtiter plate. Peptides were then serially diluted, and dilutions were added into the wells (final volume 200 µL). Each assay was performed in triplicate. After incubation at 37 °C for 12 h, the plate was assessed by measuring the OD600. The MIC was defined as the lowest concentration (at which there was no change in optical density) required to prevent the growth of bacteria.
The stability of the purified recombinant C–L and synthesized C–L at different pH values (2.0–11.0) and different temperatures (37, 50, 60, 70, 80, 90, and 100 °C for 20 min) was evaluated. […] Stability of recombinant C–L and synthesized C–L was assessed by the agar diffusion method as described above and the inhibition zones were recorded. S. aureus ATCC25923 was used as the indicator strain and the inhibition zones were recorded.

E. coli CVCC245 = type: cell-based, Escherichia coli; details: CVCC245, 12 h
Description: as §1

S. aureus ATCC 25923 = type: cell-based, Staphylococcus aureus; details: ATCC 25923, 12 h
Description: as §1

L. mono. CVCC1599 = type: cell-based, Listeria monocytogenes; details: 12 h
Description: as §1

sheep erythrocytes = experiment: Hemolytic assay; type: cell-based; details: red cells of sheep
Description: Peptide concentrations that caused 50% hemolysis of sheep erythrocytes at 540 nm were measured to evaluate the hemolytic activities. Sheep erythrocytes with 10 mM phosphate buffered saline (PBS)/0.1% (v/v) Triton X-100 (Sigma, San Francisco, CA, USA) added were used as negative/positive control. Assays were performed in triplicate.

## CC[C@H](C)[C@H](NC(=O)[C@H](CCCCN)NC(=O)[C@H](CCCCN)NC(=O)[C@H](Cc1ccccc1)NC(=O)[C@H](CC(C)C)NC(=O)[C@H](CCCCN)NC(=O)[C@H](Cc1c[nH]c2ccccc12)NC(=O)[C@@H](N)CCCCN)C(=O)N[C@@H](Cc1ccccc1)C(=O)N[C@@H](CCCCN)C(=O)N[C@@H](CCCNC(=N)N)C(=O)N[C@H](C(=O)N[C@H](C(=O)N[C@@H](CCC(N)=O)C(=O)N[C@@H](CCCNC(=N)N)C(=O)N[C@H](C(=O)N[C@@H](CCCCN)C(=O)N[C@@H](CC(=O)O)C(=O)N[C@@H](Cc1ccccc1)C(=O)N[C@@H](CC(C)C)C(=O)N[C@@H](CCCNC(=N)N)C(=O)N[C@@H](CC(N)=O)C(=O)O)[C@@H](C)CC)C(C)C)[C@@H](C)CC [C–L, cecropin A (1–8)–LL37 (17–30)] (H-KWKLFKKIFKRIVQRIKDFLRN-OH)
pepsin
  Functional activity maintained under pepsin: over 50%
pepsin; peptide 1 μM
  Reduction in activity when exposed to pepsin: nearly half reduction in activity
Proteinase K
  Functional activity maintained under proteinase K: over 50%
trypsin
  Functional activity maintained under trypsin: over 50%

## CC[C@H](C)[C@H](NC(=O)[C@H](CCCCN)NC(=O)[C@H](CCCCN)NC(=O)[C@H](Cc1ccccc1)NC(=O)[C@H](CC(C)C)NC(=O)[C@H](CCCCN)NC(=O)[C@H](Cc1c[nH]c2ccccc12)NC(=O)[C@@H](N)CCCCN)C(=O)N[C@@H](Cc1ccccc1)C(=O)N[C@@H](CCCCN)C(=O)N[C@@H](CCCNC(=N)N)C(=O)N[C@H](C(=O)N[C@H](C(=O)N[C@@H](CCC(N)=O)C(=O)N[C@@H](CCCNC(=N)N)C(=O)N[C@H](C(=O)N[C@@H](CCCCN)C(=O)N[C@@H](CC(=O)O)C(=O)N[C@@H](Cc1ccccc1)C(=O)N[C@@H](CC(C)C)C(=O)N[C@@H](CCCNC(=N)N)C(=O)N[C@@H](CC(N)=O)C(=O)O)[C@@H](C)CC)C(C)C)[C@@H](C)CC [Recombinant C–L] (H-KWKLFKKIFKRIVQRIKDFLRN-OH)
E. coli CVCC245
  MIC: 7.2 ± 0.14 ^b μg/mL
S. aureus ATCC 25923
  MIC: 2.2 ± 0.05 ^c μg/mL
L. mono. CVCC1599
  MIC: 2.1 ± 0.03 ^c μg/mL
Sheep erythrocytes
  HC50 (hemolytic activity): 221 ± 3.45 ^a μg/mL
pepsin
  Functional activity maintained under pepsin: almost the same stability
Proteinase K
  Functional activity maintained under proteinase K: almost the same stability
trypsin
  Functional activity maintained under trypsin: almost the same stability

## CC[C@H](C)[C@H](NC(=O)[C@H](CCCCN)NC(=O)[C@H](CCCCN)NC(=O)[C@H](Cc1ccccc1)NC(=O)[C@H](CC(C)C)NC(=O)[C@H](CCCCN)NC(=O)[C@H](Cc1c[nH]c2ccccc12)NC(=O)[C@@H](N)CCCCN)C(=O)N[C@@H](Cc1ccccc1)C(=O)N[C@@H](CCCCN)C(=O)N[C@@H](CCCNC(=N)N)C(=O)N[C@H](C(=O)N[C@H](C(=O)N[C@@H](CCC(N)=O)C(=O)N[C@@H](CCCNC(=N)N)C(=O)N[C@H](C(=O)N[C@@H](CCCCN)C(=O)N[C@@H](CC(=O)O)C(=O)N[C@@H](Cc1ccccc1)C(=O)N[C@@H](CC(C)C)C(=O)N[C@@H](CCCNC(=N)N)C(=O)N[C@@H](CC(N)=O)C(=O)O)[C@@H](C)CC)C(C)C)[C@@H](C)CC [Synthesized C–L] (H-KWKLFKKIFKRIVQRIKDFLRN-OH)
E. coli CVCC245
  MIC: 7.0 ± 0.21 ^b μg/mL
S. aureus ATCC 25923
  MIC: 2.0 ± 0.02 ^c μg/mL
L. mono. CVCC1599
  MIC: 2.2 ± 0.05 ^c μg/mL
Sheep erythrocytes
  HC50 (hemolytic activity): 219 ± 2.98 ^a μg/mL
pepsin
  Functional activity maintained under pepsin: maintained a portion of functional activity
Proteinase K
  Functional activity maintained under proteinase K: maintained a portion of functional activity
trypsin
  Functional activity maintained under trypsin: maintained a portion of functional activity
